US11241442B2, “Methods of use for TRP channel antagonist-based combination cancer therapies” (President and Fellows of Harvard College, priority 2017, dated 2022)

Columns and labels:
TRPA1 [1] = test: [Ca2+]i by fura-2 in TRPA1-expressing MCF-10A 3D acini; type: cell-based; details: inner ECM-deprived region of MCF-10A acini
Experimental: (§1) For the measurement of [Ca^2+]i levels in cells cultured in 2D or 3D (in Matrigel), cells were stained with 3.5 μM fura-2-AM (Life Technology) in the presence of 2.5 mM probenecid (Sigma) and 0.02% Pluronic F-127 (Sigma) for 45 min at 37° C. The fura-2 fluorescence was measured in HBS solution containing 1.25 mM probenecid at 37° C. Fluorescence images of the cells were acquired through the Eclipse Ti-E microscope with ORCA-R2 cooled CCD camera and analyzed with Metafluor. The 340:380-nm ratio images were obtained on a pixel-by-pixel basis and were converted to Ca^2+ concentrations by in vivo calibration using 5 μM ionomycin as described previously (Nishida et al., Biochem. Biophys. Res. Commun., 262:350-354, 1999). 3D images are shown as one section from midstructure. For the measurement of [Ca^2+]i levels in cells cultured in suspension, cell clumps were dissociated with trypsin and [Ca^2+]i levels were determined by using Fluo-4 NW Calcium Assay Kit (Molecular Probes). Cells were stained with Fluo-4 according to the manufacturer's instructions and subjected to flow cytometric analysis (FACSCalibur) using HBS as sheath fluid. [Ca^2+]i levels determined by flow cytometry are reported as mean fluorescence intensity expressed in arbitrary units. Time courses of [Ca^2+]i rises in 2D culture are representative of three independent experiments and averaged Δ[Ca^2+]i represents mean±SEM from the sum of three independent experiments. Fura-2 ratio images in 3D culture are representative of two independent experiments and averaged [Ca^2+]i in 3D culture represents mean±SEM from the sum of two independent experiments.

HCC1569 spheroids = test: [H2O2]i by Hyper-2 in HCC1569 spheroids; type: cell-based; details: AP-18, 300 nM A-967079 or 5 mM NAC
Experimental: (§2) For the measurement of [H2O2]i levels in MCF-10A acini and HCC1569 spheroids, cells were transduced with a lentiviral vector encoding Hyper-2 or Hyper-2 (C199S). The Hyper-2 fluorescence was measured at 37° C. in HEPES-buffered saline (HBS) containing the following (in mM): 150 NaCl, 6 KCl, 1.2 MgSO4, 2 CaCl2, 11.5 glucose, and 25 HEPES (pH adjusted to 7.4 with NaOH). Fluorescence images of the cells were acquired through the Eclipse Ti-E microscope (Nikon) with ORCA-R2 cooled CCD camera (Hamamatsu Photonics) and analyzed with Metafluor image acquisition software (Molecular Devices). The 488:405-nm ratio images were obtained on a pixel-by-pixel basis. 3D images are shown as one section from midstructure. For the measurement of [H2O2]i levels in MCF-10A cells cultured in suspension, cell clumps were dissociated with trypsin and stained with 10 μM peroxy green-1 for 30 min at 37° C. Cells were then subjected to flow cytometric analysis (FACSCalibur; BD Biosciences). ROS levels determined by flow cytometry are reported as mean fluorescence intensity expressed in arbitrary units. Hyper-2 ratio images are representative from two independent experiments and averaged Hyper-2 ratio represents mean±SD from the sum of two independent experiments.

HCC1569 cells [2] = test: Live cell number and cell death under carboplatin in HCC1569 cells; type: cell-based; details: carboplatin 72 h
Experimental: For the measurements of live cell number and cell death under treatment with H2O2, diamide, or chemotherapies, cells were cultured on 96-well plates in the presence or absence of these drugs for indicated times and stained with 5 μM bisBenzimide H 33342 trihydrochloride (Hoechst; Sigma) and 5 μM propidium iodide (PI; Sigma) for 1 h at 37° C. Hoechst- and/or PI-positive cells were counted using a laser scanning cytometer, Acumen Cellista (TTPLabTech). Apoptotic cells induced by H2O2 treatment were measured by staining with Annexin V-Alexa Fluor® 488 conjugate (Life Technologies) and PI in Ca^2+-containing solution (10 mM HEPES pH 7.4, 140 mM NaCl; 2.5 mM CaCl2), followed by flow cytometric measurement of fluorescence using a FACSCalibur. Flow cytometry plots are representative of three independent experiments. For the counting of viable cells cultured in suspension, cell clumps were dissociated with trypsin and stained with trypan blue. Viable cells were counted using the Countless Automated Cell Counters (Thermo Fisher Scientific). For the measurement of percentage of dead cells cultured in suspension, cells were cultured on poly HEMA-coated 96-well plates and stained with 5 μM Hoechst and 5 μM PI for 1 h at 37° C. without enzymatic dissociation of cell clumps. Hoechst- and/or PI-positive areas were measured using Acumen Cellista. Apoptotic cells induced by detachment were measured by staining with 5 μM Hoechst and 5 μM of CellEvent™ Caspase-3/7 Green Detection Reagent (Thermo Fisher Scientific) for 1 h at 37° C. without enzymatic dissociation of cell clumps. Hoechst- and/or CellEvent™ Caspase-3/7 Green Detection Reagent-positive areas were measured using Acumen Cellista. For the cell cycle analysis, enzymatically dissociated cells were fixed with ice-cold 70% EtOH for at least 30 min at 4° C., washed three times with PBS at 4° C., resuspended in PBS, treated with 100 μg/ml RNase A (Sigma), and stained with 50 μg/ml PI. The stained samples were subjected to flow cytometric analysis (FACSCalibur).

TRPA1 [3] = target: T1, TRPA1 (Homo sapiens, UniProt O75762); test: [Ca2+]i by fura-2 in HCC1569 spheroids; type: cell-based; details: AP-18, 300 nM A-967079 or 5 mM NAC
T1 construct: endogenous in cells; host or cells: HCC1569 breast cancer cells (2D culture or 3D spheroids; shGFP or shTRPA1 transduced)
Experimental: as §1

TRPA1 [4] = target: T1, TRPA1; test: Ca2+ responses to carboplatin in HCC1569 cells; type: cell-based; details: 10 μM AP-18 or 300 nM A-967079
Experimental: as §1

HCC1569 cells [5] = test: Soft agar anchorage-independent growth of HCC1569 cells; type: cell-based
Experimental: (§3) Cells were added to the regular MCF-10A or HCC1569 growth media (±AP-18, A-967079, or Trolox) plus 0.4% low-melt agarose (Sigma) and layered onto a bed of growth media plus 0.5% low-melt agarose. Cells were fed every 4 days with growth media (±AP-18, A-967079, or Trolox) plus 0.4% low-melt agarose. At the indicated times, viable colonies were stained with iodonitrotetrazolium chloride (Sigma). Colony number and colony size were determined using ImageJ. Images shown are representative of at least three independent experiments.

MCF-10A acini = test: [H2O2]i by Hyper-2 in MCF-10A 3D acini; type: cell-based
Experimental: as §2

[6] = in vivo; cited from earlier work
[7] = tested on: EL-12-58 xenograft tumors; test: EL-12-58 xenograft tumor growth in NRG mice; type: in vivo
MCF-10A cells = test: [H2O2]i by peroxy green-1 flow cytometry in ECM-detached MCF-10A cells; type: cell-based; details: 1 mM NAC; 24 h after plating in non-adherent plates
Experimental: as §2

TRPA1 [8] = target: T1, TRPA1; test: [Ca2+]i by Fluo-4 flow cytometry in ECM-detached TRPA1-expressing MCF-10A cells; type: cell-based; details: 1 mM NAC; 24 h after plating in non-adherent plates
Experimental: as §1, with “Time courses of [Ca^2+]i rises in 2D culture are representative of three independent experiments and averaged Δ[Ca^2+]i represents mean±SEM from the sum of three independent experiments. Fura-2 ratio images in 3D culture are representative of two independent experiments and averaged [Ca^2+]i in 3D culture represents mean±SEM from the sum of two independent experiments.” left out

[9] = tested on: MCF-10A cells expressing HER2; test: Soft agar colony formation of MCF-10A cells expressing HER2; type: cell-based
Experimental: as §3

[10] = Weight loss of EL-12-58 xenograft animals; type: in vivo, mice; details: mean±SD
Experimental: (§4) All animal studies were performed according to protocols approved by the Institutional Animal Care and Use Committee, the Standing Committee on Animals at Harvard University. One million HCC1569 cells stably expressing either TRPA1 or GFP (control) shRNAs were injected into cleared mammary fatpads of 8-week-old female NOD-Rag1^null IL2rg^null (NRG) mice. Tumor volume (mm^3) was monitored by caliper measurements in two perpendicular dimensions (the formula: (d^2×D)/2, where d and D represent the shortest and longest diameters, respectively) at the indicated time points. After tumors reached 3 to 5 mm in diameter, animals were randomized into the following treatment arms: (i) 37.5 mg/kg carboplatin or (ii) its vehicle (H2O) administrated via intraperitoneal injection for HCC1569 cell-transplanted animals; (i) oral administration of 30.0 mg/kg AM-0902, (ii) intraperitoneal administration of 37.5 mg/kg carboplatin, (iii) oral administration of 30.0 mg/kg AM-0902 plus intraperitoneal administration of 37.5 mg/kg carboplatin, or (iv) oral administration of 1% Tween 80/2% HPMC/97% water/methanesulfonic acid pH 2.2 (vehicle for AM-0902) plus intraperitoneal administration of H2O (vehicle for carboplatin) for EL-12-58 cell-transplanted animals. Power calculations are based on the standard deviation and effect size from pilot experiments in HCC1569 cells. The sample size of seven mice per group provides greater than 95% power to detect a ˜80% difference in change in tumor volume between control and shTRPA1-treated cells with a two-sided type I error rate of 5%. Averaged tumor volume represents mean±SEM.

HCC1569 cells [11] = test: HCC1569 xenograft tumor growth in NRG mice; type: in vivo
Experimental: as §4, with “The sample size of seven mice per group provides greater than 95% power to detect a ˜80% difference in change in tumor volume between control and shTRPA1-treated cells with a two-sided type I error rate of 5%. Averaged tumor volume represents mean±SEM.” left out
Unstained breast cancer and normal breast tissue arrays were purchased from US Biomax (BR1504a for breast tumors, BN08111 for normal breast tissues). […] Tumor slides stained for TRPA1, blinded and were evaluated by light microscopy and scored by a veterinary pathologist. Images of tissue sections were captured at 4× magnification to create a merged image of the entire section and at 20× magnification for quantification of cleaved caspase-3-positive nuclei, using a Olympus VS120 Slide Scanner. […] Relative apoptosis was quantified by determining the percentage of cleaved caspase-3-positive cells from more than five random fields, per section, from each tumor in the group, and normalized to the shGFP-expressing tumors treated with vehicle. […]

HCC1569 cells [12] = details: cited from earlier work

T1 sequence (O75762 whole entry): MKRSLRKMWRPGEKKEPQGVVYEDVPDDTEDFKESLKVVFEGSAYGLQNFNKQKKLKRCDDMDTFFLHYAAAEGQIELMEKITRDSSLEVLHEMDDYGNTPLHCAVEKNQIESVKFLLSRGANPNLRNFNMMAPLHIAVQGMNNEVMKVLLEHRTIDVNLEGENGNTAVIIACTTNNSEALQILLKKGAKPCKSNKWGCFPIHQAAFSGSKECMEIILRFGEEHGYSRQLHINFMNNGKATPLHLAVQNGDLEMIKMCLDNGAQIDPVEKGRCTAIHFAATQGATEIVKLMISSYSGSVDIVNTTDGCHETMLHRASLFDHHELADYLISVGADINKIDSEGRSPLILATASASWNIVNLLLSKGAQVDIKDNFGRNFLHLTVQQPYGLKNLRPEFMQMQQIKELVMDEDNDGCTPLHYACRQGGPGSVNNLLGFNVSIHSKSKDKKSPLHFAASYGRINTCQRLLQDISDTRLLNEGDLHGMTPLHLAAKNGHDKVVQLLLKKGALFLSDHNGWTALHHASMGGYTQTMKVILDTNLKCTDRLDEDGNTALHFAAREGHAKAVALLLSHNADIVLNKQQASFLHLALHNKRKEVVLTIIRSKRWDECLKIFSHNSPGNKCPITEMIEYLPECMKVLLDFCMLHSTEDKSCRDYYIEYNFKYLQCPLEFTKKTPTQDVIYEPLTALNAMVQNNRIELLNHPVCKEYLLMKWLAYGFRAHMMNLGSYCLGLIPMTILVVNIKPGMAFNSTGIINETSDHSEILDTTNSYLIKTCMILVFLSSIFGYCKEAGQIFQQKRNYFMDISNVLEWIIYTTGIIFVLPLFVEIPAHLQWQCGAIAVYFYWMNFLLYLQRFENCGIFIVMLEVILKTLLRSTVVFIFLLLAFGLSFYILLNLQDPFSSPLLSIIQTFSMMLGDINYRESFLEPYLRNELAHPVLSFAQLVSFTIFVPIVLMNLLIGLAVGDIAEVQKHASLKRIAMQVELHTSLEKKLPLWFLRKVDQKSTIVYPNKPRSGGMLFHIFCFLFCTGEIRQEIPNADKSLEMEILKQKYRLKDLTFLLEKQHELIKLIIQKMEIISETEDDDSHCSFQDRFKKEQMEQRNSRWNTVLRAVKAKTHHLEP

With `CCC(=N\O)/C(C)=C/c1ccc(F)cc1` [A-967079] the “TRPA1- or E681K-induced [Ca2+]i rises” value (TRPA1 [1]) was “abolished”, the “increase in [H2O2]i (Hyper-2) in inner region of spheroids” value (HCC1569 spheroids) was “unaffected” and the “cell death in response to carboplatin treatment” value (HCC1569 cells [2]) was “enhanced”. The “live cell number in response to carboplatin treatment” value (HCC1569 cells [2]) was “substantially suppressed”, the “elevated [Ca2+]i of inner cells of spheroids” value (TRPA1 [3]) was “suppressed” and the “[Ca2+]i rises upon carboplatin treatment” value (TRPA1 [4]) was “significantly suppressed”. For the same compound, the “oscillatory Ca2+ responses upon carboplatin treatment” value (TRPA1 [4]) was “significantly suppressed”, the “anchorage-independent growth (number and average size of colonies)” value (HCC1569 cells [5]) was “impaired” and the “increase in [H2O2]i (Hyper-2) in inner ECM-deprived cells” value (MCF-10A acini) was “unaffected”.
In the case of `Cn1cnc2ncn(Cc3nc(CCc4ccc(Cl)cc4)no3)c(=O)c21` [AM-0902], the “plasma half-life (T1/2)” value [6] is given as 2.8 h, the “tumor volume / tumor growth” value ([7]; AM-0902 30.0 mg/kg oral twice daily, carboplatin 37.5 mg/kg intraperitoneal) is given as “reduced” and the tumor mass ([7]; at end point, AM-0902 30.0 mg/kg oral twice daily, carboplatin 37.5 mg/kg intraperitoneal) is given as “reduced”. The “live tumor cell area relative to total area (H&E)” value ([7]; compared with vehicle or single carboplatin treatment) was “reduced”.
With `CC(=O)N[C@@H](CS)C(=O)O` [NAC, N-Acetyl-L-cysteine] the “TRPA1- or E681K-induced [Ca2+]i rises” value (TRPA1 [1]) was “abolished”, the “increase in [H2O2]i (Hyper-2) in inner region of spheroids” value (HCC1569 spheroids) was “abolished” and the “TRPA1-mediated chemoresistance to carboplatin” value (HCC1569 cells [2]; 5 mM NAC) was “largely eliminated”. The “elevated [Ca2+]i of inner cells of spheroids” value (TRPA1 [3]) was “suppressed”, the “increase in [H2O2]i (Hyper-2) in inner ECM-deprived cells” value (MCF-10A acini) was “abolished” and the “detachment-induced increase in [H2O2]i” value (MCF-10A cells) was “suppressed”. For the same compound, the “detachment-induced TRPA1-dependent increase in [Ca2+]i” value (TRPA1 [8]) was “abolished”.
For `Cc1c(C)c2c(c(C)c1O)CCC(C)(C(=O)O)O2` (stereo not drawn) [Trolox], the “colony number and size” value ([9]; Trolox treatment) was “strongly increased” and the “TRPA1-induced increase in number and average size of colonies” value ([9]; wild-type or E681K TRPA1 expression) was “eliminated”.
With `N.N.O=C([O-])C1(C(=O)[O-])CCC1.[Pt+2]` [carboplatin] the averaged weight loss ([10]; day 26) was 3.94±1.02%, the averaged weight loss ([10]; day 29) was 7.01±2.80% and the averaged weight loss ([10]; day 32) was 10.3±3.36%. The “tumor response to carboplatin” value (HCC1569 cells [11]; tumors expressing shGFP (control), 37.5 mg/kg carboplatin intraperitoneal twice a week) was “resistant”, the “tumor growth after carboplatin treatment” value (HCC1569 cells [11]; tumors expressing shTRPA1, 37.5 mg/kg carboplatin intraperitoneal twice a week) was “significant reduction” and the “apoptosis (cleaved caspase-3 staining of tumor sections)” value (HCC1569 cells [11]; tumors expressing shTRPA1, carboplatin treatment) was “increased”.
In the case of `N.N.[Cl][Pt][Cl]` [cisplatin], the “Resistance rank among 893 cancer cell lines” value (HCC1569 cells [12]) is given as 45 and the resistance z-score (HCC1569 cells [12]) is given as 1.54.
